Reference: patent publication US11541049B2, “Tetrahydroisoquinoline derivatives, preparation process and use thereof” (SICHUAN KELUN-BIOTECH BIOPHARMACEUTICAL CO., LTD., priority 2018, dated 2023)

Experiments:
rabbit plasma = experiment: Effect on coagulation in vitro (aPTT and PT), rabbit plasma; settings: final concentration 10NM (so in the source), n = 3
Text: (§1) aPTT reagent (purchased from Sysmex);
(§2) PT reagent (purchased from Sysmex);
(§3) The coagulation pathway includes the extrinsic coagulation pathway and the intrinsic coagulation pathway. The parameter associated with the extrinsic coagulation pathway is prothrombin time, expressed as PT; the parameter associated with the intrinsic coagulation pathway is activated partial thromboplatin time, expressed as aPTT.
(§4) After anticoagulation, blood of different species (rabbit, human) was subjected to centrifugation. The upper layer of plasma was collected and divided into several aliquots. The test compounds were added to make the final concentration of test compound to be 10NM. Incubation was conducted at 37° C. after mixed thoroughly. Then the samples were put into a coagulation analyzer (Sysmex CA1500, Sysmex, Japan) for the aPTT and PT assays. Blank plasma (without test compound) was used as a reference, and the ratio values of aPTT and PT of all samples and blank plasmas were analyzed, the results are shown in table 3.

human plasma = experiment: Effect on coagulation in vitro (aPTT and PT), human plasma; settings: final concentration 10NM (so in the source), n = 3
Text: as §1, §2, §3, §4

[1] = target: human coagulation factor XIa (Homo sapiens (Human), UniProt P03951); experiment: Inhibition of coagulation factor XIa (fluorogenic substrate, enzyme kinetic mode); assay type: biochemical
Chain of human coagulation factor XIa (P03951 388-625): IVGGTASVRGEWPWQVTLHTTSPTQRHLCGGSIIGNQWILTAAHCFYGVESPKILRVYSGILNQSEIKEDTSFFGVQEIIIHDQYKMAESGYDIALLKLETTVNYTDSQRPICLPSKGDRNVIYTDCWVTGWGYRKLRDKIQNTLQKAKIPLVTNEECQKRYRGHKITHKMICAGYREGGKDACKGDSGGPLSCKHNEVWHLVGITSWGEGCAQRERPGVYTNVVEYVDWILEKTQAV
Chain of human coagulation factor XIa (P03951 19-387): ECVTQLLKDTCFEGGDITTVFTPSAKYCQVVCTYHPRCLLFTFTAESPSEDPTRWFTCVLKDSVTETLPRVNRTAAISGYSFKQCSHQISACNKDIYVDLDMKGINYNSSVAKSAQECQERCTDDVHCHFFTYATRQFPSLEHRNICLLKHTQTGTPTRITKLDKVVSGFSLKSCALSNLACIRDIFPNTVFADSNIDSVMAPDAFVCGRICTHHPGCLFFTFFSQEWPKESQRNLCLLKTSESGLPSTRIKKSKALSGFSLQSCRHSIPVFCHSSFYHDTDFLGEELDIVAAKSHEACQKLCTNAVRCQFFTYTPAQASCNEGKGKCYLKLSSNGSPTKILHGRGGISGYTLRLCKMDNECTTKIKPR
Protocol: The following procedures can be used to determine the in vitro inhibition of human coagulation factor XIa by the compound of the present disclosure, as indicated by IC50.
Enzyme: human coagulation factor XIa; manufacturer: Haemtech;
Substrate: Boc-Ile-Glu-Gly-Arg-AMC Acetate salt; manufacturer: Bachem;
Reaction buffer: 50 mM HEPES, 145 mM NaCl, 5 mM KCl, 0.1% BSA, pH 7.4;
The test compounds were dissolved in reaction buffer at different concentrations. 4 μl of coagulation factor XIa and 4 μl of the test compound were added to a 384 well plate, incubated at room temperature for 10 minutes after mixed thoroughly, and then 4 μl of substrate was added to initiate the reaction. For reading fluorescence signal value, enzyme kinetic mode was used. The wavelength of excitation light was selected to be 380 nm, and the wavelength of emission light was selected to be 460 nm. Read once per 30 seconds, and continuously read 20 cycles. Linear regression analysis of signal value-time was performed during the linear reaction period, and the slope was the reaction rate, and the enzyme activity inhibition rate was calculated according to the following formula. The half inhibitory concentration IC50 values of the compound were fitted using GraphPad Prism 5 software, and results are shown in Table 1. Inhibition rate %=(V0−Vi)/(V0−Vblank)×100.
In the formula: V0 is the reaction rate of the control well (using the same volume of reaction buffer without adding test compound), Vi is the reaction rate of test compound, Vblank is a blank well (using the same volume of reaction buffer without adding either enzyme or test compound).

SD rats = experiment: Single dose toxicity study in SD rats, intravenous infusion; settings: 50, 75, 100, 150, 200 mg/kg, intravenous infusion (2 ml/min)
Protocol: (§5) The clinical observation was carried out for 7 days after a single dose, and the body weight of the animals were measured. On the 8th day, blood samples were taken after anesthesia for detection of hematology, blood biochemistry, coagulation and other indicators. Observation was also conducted by gross anatomy.

in vivo = settings: SD, rat, iv
Protocol: as §5

N[C@@H](CCCCNC(=O)CN1CC=C(c2cccc3c2CCN(C(=O)[C@H]2CC(c4cccc(Cl)c4F)=NO2)[C@@H]3C(=O)Nc2ccc(C(=O)O)cc2)CC1)C(=O)O [Example 5, 4-((S)-5-(1-(2-(((S)-5-amino-5-carboxypentyl)amino)-2-oxoethyl)-1,2,3,6-tetrahydropyridin-4-yl)-2-((R)-3-(3-chloro-2-fluorophenyl)-4,5-dihydroisoxazole-5-carbonyl)-1,2,3,4-tetrahydroisoquinoline-1-carboxamido)benzoic acid]
Ratio of PT to that of blank plasma (rabbit plasma): 1.00
Ratio of aPTT to that of blank plasma (rabbit plasma): 1.84
Ratio of PT to that of blank plasma (human plasma): 1.03
Ratio of aPTT to that of blank plasma (human plasma): 2.95
IC50 [1]: 0.16 ± 0.02 nM
Single dose toxicity study in SD rats: observation (SD rats): No abnormality was found
MTD at 7 days (in vivo): ≥ 200 mg/kg
